Data set [1] has as its system Alternaria alternata. Kind of data set: Alternaria alternata in vitro cell test. Particulars: 120 h, 20 ppm of active ingredient, liquid culture, 5 days incubation, read-out: efficacy (inhibition of fungal growth). The format is cell-based. The procedure:
(§1) • Solvent: […] Fungicides were solubilized in DMSO and the solution used to prepare the required range of concentrations. The final concentration of DMSO used in the assay was ≤1%. A spore suspension of Alternaria alternata was prepared and diluted to the desired spore density. Fungicides were evaluated for their ability to inhibit spore germination and mycelium growth in liquid culture assay. The compounds were added in the desired concentration to the culture medium with spores. After 5 days incubation, fungi-toxicity of compounds was determined by spectrometric measurement of mycelium growth. Inhibition of fungal growth was determined by comparing the absorbance values in wells containing the fungicides with the absorbance in control wells without fungicides.

The test system of data set [2] is Fusarium culmorum. Put plainly: Fusarium culmorum in vitro cell test. In kind it is cell-based. Conditions: 96 h, 20 ppm of active ingredient, liquid culture, 4 days incubation, read-out: efficacy (inhibition of fungal growth). The procedure:
• Solvent: DMSO • Culture medium: 14.6 g anhydrous D-glucose (VWR), 7.1 g Mycological Peptone (Oxoid), 1.4 g granulated Yeast Extract (Merck), QSP 1 liter • Inoculum: spore suspension
Fungicides were solubilized in DMSO and the solution used to prepare the required range of concentrations. The final concentration of DMSO used in the assay was ≤1%.
A spore suspension of Fusarium culmorum was prepared and diluted to the desired spore density.
Fungicides were evaluated for their ability to inhibit spore germination and mycelium growth in liquid culture assay. The compounds were added in the desired concentration to the culture medium with spores. After 4 days incubation, fungi-toxicity of compounds was determined by spectrometric measurement of mycelium growth. Inhibition of fungal growth was determined by comparing the absorbance values in wells containing the fungicides with the absorbance in control wells without fungicides.

Data set [3] relates to Colletotrichum lindemuthianum. Put plainly: Colletotrichum lindemuthianum in vitro cell test. Conditions: 144 h, 20 ppm of active ingredient, liquid culture, 6 days incubation, read-out: efficacy (inhibition of fungal growth). The format is cell-based. The method, then: as §1, with “1%.” for “≤1%.”, “Colletotrichum lindemuthianum” for “Alternaria alternata”, “6” for “5”
Data set [4] is described as follows: Measurement of Log P values by HPLC on reversed phase columns (EEC directive 79/831 Annex V.A8). In kind it is physicochemical. The method, then: Measurement of Log P values as provided herein was performed according to EEC directive 79/831 Annex V.A8 by HPLC (High Performance Liquid Chromatography) on reversed phase columns with the following methods: • ^[a] Log P value is determined by measurement of LC-UV, in an acidic range, with 0.1% formic acid in water and acetonitrile as eluent (linear gradient from 10% acetonitrile to 95% acetonitrile). • ^[b] Log P value is determined by measurement of LC-UV, in a neutral range, with 0.001 molar ammonium acetate solution in water and acetonitrile as eluent (linear gradient from 10% acetonitrile to 95% acetonitrile). • ^[c] Log P value is determined by measurement of LC-UV, in an acidic range, with 0.1% phosphoric acid and acetonitrile as eluent (linear gradient from 10% acetonitrile to 95% acetonitrile).
If more than one Log P value is available within the same method, all the values are given and separated by “+”. […]

For data set [5], the system named is Pyricularia oryzae. Kind of data set: microbe, parasite or virus in culture. The format is cell-based. Conditions: 120 h, read-out: efficacy (inhibition of fungal growth).
Data set [6] has as its system Septoria tritici. Kind of data set: Septoria tritici in vitro cell test. Conditions: Zymoseptoria tritici, 168 h; 20 ppm of active ingredient; liquid culture, 7 days incubation; read-out: efficacy (inhibition of fungal growth). In kind it is cell-based. The method, then: • Solvent: DMSO • Culture medium: 1 g KH2PO4 (VWR), 1 g K2HPO4 (VWR), 0.5 g Urea (VWR), 3 g KNO3 (Prolabo), 10 g saccharose (VWR), 0.5 g MgSO4, 7H2O (Sigma), 0.07 g CaCl2, 2H2O (Prolabo), 0.2 mg MnSO4, H2O (Sigma), 0.6 mg CuSO4, 5H2O (Sigma), 7.9 mg ZnSO4, 7H2O (Sigma), 0.1 mg H3BO3 (Merck), 0.14 mg NaMoO4, 2H2O (Sigma), 2 mg thiamine (Sigma), 0.1 mg biotine (VWR), 4 mg FeSO4, 7H2O (Sigma), QSP 1 liter • Inoculum: spore suspension Fungicides were solubilized in DMSO and the solution used to prepare the required range of concentrations. The final concentration of DMSO used in the assay was 1%. A spore suspension of Septoria tritici was prepared and diluted to the desired spore density. Fungicides were evaluated for their ability to inhibit spore germination and mycelium growth in liquid culture assay. The compounds were added in the desired concentration to the culture medium with spores. […] Inhibition of fungal growth was determined by comparing the absorbance values in wells containing the fungicides with the absorbance in control wells without fungicides.

The mark [7] stands for this setting: method [a]: LC-UV, acidic range, 0.1% formic acid in water and acetonitrile as eluent.

Some results are limits rather than exact numbers.

Inhibition and chromatographic logP data for 11 compounds are collected here from patent US12673942B2, “Azabicyclyl-substituted heterocycles as fungicides” (Bayer Aktiengesellschaft, priority 2020, dated 2026).

For orientation: inhibition means the percentage by which the read-out fell short of the control. The chromatographic logP is lipophilicity estimated from chromatographic retention.

For the compound `Cc1ccc(C[C@@H]2CON=C(c3c(Oc4cccc(C(F)(F)F)c4)nnc4cc(C)ccc34)N2)c(C)c1` (racemic) [Compound I-005], the inhibition at 20 ppm in data set [1], in data set [2], in data set [3] and in data set [5] was no less than 70% throughout. The chromatographic logP in data set [4] (setting [7]) came out at 4.32; in data set [4] (method [b]: LC-UV, neutral range, 0.001 molar ammonium acetate solution in water and acetonitrile as eluent) it was 4.27.

Consider `Cc1ccc(CC2CON=C(c3c(Oc4cccc(C5CC5)c4F)nnc4ccccc34)N2)c(C)c1` (racemic) [Compound I-006, 3-(3-cyclopropyl-2-fluorophenoxy)-4-[(5RS)-5-(2,4-dimethylbenzyl)-5,6-dihydro-4H-1,2,4-oxadiazin-3-yl]cinnoline], for which the inhibition at 20 ppm in data set [1], in data set [2], in data set [3], in data set [6] and in data set [5] was no less than 70% each time. In addition, the chromatographic logP in data set [4] (setting [7]) amounted to 4.37.

On to `FC(F)(F)c1cccc(Oc2nnc3ccccc3c2C2=NOC[C@@H](Cc3ccc(Br)cc3Cl)N2)c1` (racemic) [Compound I-007], for which the inhibition at 20 ppm in data set [1], in data set [2], in data set [3], in data set [6] and in data set [5] was no less than 70% throughout. Besides, the chromatographic logP in data set [4] (setting [7]) amounted to 4.44.

In the case of `C=Cc1ccc(C[C@@H]2CON=C(c3c(Oc4cccc(C(F)(F)F)c4)nnc4ccccc34)N2)c(Cl)c1` (racemic) [Compound I-009], the inhibition at 20 ppm in data set [1], in data set [2], in data set [3], in data set [6] and in data set [5] was no less than 70% in each case. Moreover, the chromatographic logP in data set [4] (setting [7]) stood at 4.44.

On to `Cc1ccc(C[C@@H]2CON=C(c3c(Oc4cccc(C(F)(F)F)c4)cnc4ccoc34)N2)c(C)c1` (racemic) [Compound I-013], for which the inhibition at 20 ppm in data set [1], in data set [2], in data set [3], in data set [6] and in data set [5] was no less than 70% in each case. Further, the chromatographic logP in data set [4] (setting [7]) was found to be 3.96.

As for `Cc1ccc(C[C@@H]2CON=C(c3c(Oc4cccc(C5CC5)c4F)cnc4nccnc34)N2)c(C)c1` (racemic) [Compound I-014], the inhibition at 20 ppm in data set [1], in data set [2], in data set [3] and in data set [6] was no less than 70% each time. This compound also displayed a chromatographic logP in data set [4] (setting [7]) of 3.5.

Consider `FC(F)(F)c1cccc(Oc2cnc3ccccc3c2C2=NC[C@@H](Cc3ccc(Cl)cc3)N2)c1` (racemic) [Compound I-015], for which the inhibition at 20 ppm in data set [1], in data set [2], in data set [3], in data set [6] and in data set [5] was no less than 70% each time. The chromatographic logP in data set [4] (setting [7]) was 2.46.

Take `C#Cc1cccc(Oc2cnc3ccccc3c2C2=NOC[C@@H](Cc3ccc(C)cc3C)N2)c1` (racemic) [Compound I-016]: the inhibition at 20 ppm in data set [1], in data set [2], in data set [3], in data set [6] and in data set [5] was no less than 70% throughout. In addition, in data set [4] (setting [7]), the chromatographic logP was 4.05.

Consider `Cc1ccc(C[C@@H]2CON=C(c3c(Oc4cccc(C5CC5)c4F)cnc4ccccc34)N2)c(C)c1` (racemic) [Compound I-017], for which the inhibition at 20 ppm in data set [1], in data set [2], in data set [3], in data set [6] and in data set [5] was no less than 70% in each case. Further, the chromatographic logP in data set [4] (setting [7]) amounted to 4.51.

Turning to `C=Cc1cccc(Oc2cnc3ccccc3c2C2=NOC[C@@H](Cc3ccc(C)cc3C)N2)c1` (racemic) [Compound I-018], the inhibition at 20 ppm in data set [1], in data set [2], in data set [3], in data set [6] and in data set [5] was no less than 70% in each case. This compound also yielded a chromatographic logP in data set [4] (setting [7]) of 4.23.

On to `Cc1ccc(C[C@@H]2CON=C(c3c(Oc4cccc(Br)c4F)cnc4ccccc34)N2)c(C)c1` (racemic) [Compound I-019], for which the inhibition at 20 ppm in data set [1], in data set [2], in data set [3], in data set [6] and in data set [5] was no less than 70% throughout. The chromatographic logP in data set [4] (setting [7]) worked out at 4.33.
